Consider 32 molecules from US9884048B2, “ERK inhibitors” (Merck Sharp & Dohme Corp., priority 2014, dated 2018).

The term IC50 denotes the concentration needed to halve the response being measured.

The test addresses phosphorylated active hERK2 enzyme (Homo sapiens (Human), UniProt P28482). As to conditions: read-out: ERK2 IC50; IMAP-FP assay; 0.5 nM hERK2, 30 μM ATP; 10 point titration, 3 μM starting concentration.

Each structure is given as a SMILES string.

Chain of phosphorylated active hERK2 enzyme (P28482 whole entry): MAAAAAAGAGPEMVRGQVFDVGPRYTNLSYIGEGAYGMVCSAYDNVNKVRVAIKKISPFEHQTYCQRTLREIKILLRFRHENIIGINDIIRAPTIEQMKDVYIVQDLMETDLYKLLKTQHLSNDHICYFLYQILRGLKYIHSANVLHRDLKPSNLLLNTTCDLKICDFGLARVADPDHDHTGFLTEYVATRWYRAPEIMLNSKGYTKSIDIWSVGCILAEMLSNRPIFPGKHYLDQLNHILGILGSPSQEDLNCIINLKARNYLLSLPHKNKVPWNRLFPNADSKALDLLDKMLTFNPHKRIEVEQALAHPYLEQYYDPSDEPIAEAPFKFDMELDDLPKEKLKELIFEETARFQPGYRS

`Cc1cc(-n2ncc3cc(NC(=O)N[C@H]4CN(CC(F)(F)F)C[C@@H]4c4ccccc4)ncc32)ccn1` [Example 156, 1-[1-(2-methylpyridin-4-yl)-1H-pyrazolo[3,4-c]pyridin-5-yl]-3-[(3R,4S)-4-phenyl-1-(2,2,2-trifluoroethyl)pyrrolidin-3-yl)urea]: the IC50 came out at 0.00885 µM. Regarding `Cc1cc(-n2ncc3cc(NC(=O)N[C@H]4CNC[C@@H]4Oc4ccccc4)ncc32)ccn1` [Example 157, 1-[1-(2-methylpyridin-4-yl)-1H-pyrazolo[3,4-c]pyridin-5-yl]-3-[(3S,4S)-4-phenoxypyrrolidin-3-yl)urea], the IC50 amounted to 0.0353 µM. Under `Cc1cc(-n2ncc3cc(NC(=O)N[C@H]4CN(C)C[C@@H]4Oc4ccccc4)ncc32)ccn1` [Example 158, 1-[(3S,4S)-1-methyl-4-phenoxypyrrolidin-3-yl]-3-[1-(2-methylpyridin-4-yl)-1H-pyrazolo[3,4-c]pyridin-5-yl]urea] stands 0.0205 µM.

Take `Cc1cc(-n2ncc3cc(NC(=O)NC(c4ccccc4)C4CCCO4)ncc32)ccn1` (centres unmarked) [Example 159, 1-[1-(2-methylpyridin-4-yl)-1H-pyrazolo[3,4-c]pyridin-5-yl]-3-[phenyl(tetrahydrofuran-2-yl)methyl]urea]: the half-maximal inhibitory concentration (IC50) came to 0.00249 µM. `Cc1cc(-n2ncc3cc(NC(=O)N[C@H]4CCC[C@H]4Cc4ccccc4)ncc32)ccn1` [Example 160, 1-[(1S,2S)-2-benzylcyclopentyl]-3-[1-(2-methylpyridin-4-yl)-1H-pyrazolo[3,4-c]pyridin-5-yl)urea]: the IC50 worked out at 0.0139 µM. The result for `Cc1cc(-n2ncc3cc(NC(=O)N[C@H]4CCC[C@@H]4Oc4ccccc4)ncc32)ccn1` [Example 161, 1-[1-(2-methylpyridin-4-yl)-1H-pyrazolo[3,4-c]pyridin-5-yl]-3-[(1S,2S)-2-phenoxycyclopentyl]urea] reads 0.0135 µM. Under `Cc1cc(-n2ncc3cc(NC(=O)N[C@H]4CCCC[C@@H]4Cc4ccccc4)ncc32)ccn1` [Example 163, 1-[(1S,2R)-2-benzylcyclohexyl]-3-[1-(2-methylpyridin-4-yl)-1H-pyrazolo[3,4-c]pyridin-5-yl)urea] stands 0.0394 µM; under `Cc1cc(-n2ncc3cc(NC(=O)N[C@H]4CN(C)C[C@@H]4c4ccc(C5CC5)s4)ncc32)ccn1` [Example 164, 1-[(3R,4S)-4-(5-cyclopropylthiophen-2-yl)-1-methylpyrrolidin-3-yl]-3-[1-(2-methylpyridin-4-yl)-1H-pyrazolo[3,4-c]pyridin-5-yl]urea], 0.00113 µM. For `Cc1cc(-n2ncc3cc(NC(=O)N[C@H]4CN(C)C[C@@H]4c4cnn(C)c4)ncc32)ccn1` [Example 165, 1-[(3R,4S)-1-methyl-4-(1-methyl-1H-pyrazol-4-yl)pyrrolidin-3-yl]-3-[1-(2-methylpyridin-4-yl)-1H-pyrazolo[3,4-c]pyridin-5-yl)urea], the 50% inhibitory concentration (IC50) was 0.831 µM.

In the case of `Cc1cc(-n2ncc3cc(NC(=O)NC4CCC(c5ccc(F)cc5)C4)ncc32)ccn1` (centres unmarked) [Example 170, 1-[3-(4-fluorophenyl)cyclopentyl]-3-[1-(2-methylpyridin-4-yl)-1H-pyrazolo[3,4-c]pyridin-5-yl]urea], the 50% inhibitory concentration (IC50) stood at 0.197 µM. Under `Cc1cc(-n2ncc3cc(NC(=O)NC4CCCC(c5ccccc5)C4)ncc32)ccn1` (centres unmarked) [Example 171, 1-[1-(2-methylpyridin-4-yl)-1H-pyrazolo[3,4-c]pyridin-5-yl]-3-(3-phenyl-cyclohexyl)urea] stands 0.00285 µM; under `Cc1cc(-n2ncc3cc(NC(=O)NC4CCOc5ccccc54)ncc32)ccn1` (centres unmarked) [Example 172, 1-(3,4-dihydro-2H-chromen-4-yl)-3-[1-(2-methylpyridin-4-yl)-1H-pyrazolo[3,4-c]pyridin-5-yl)urea], 0.0407 µM; under `Cc1cc(-n2ncc3cc(NC(=O)NC4CCCC(c5ccc(F)cc5)C4)ncc32)ccn1` (centres unmarked) [Example 173, 1-[3-(4-fluorophenyl)cyclohexyl]-3-[1-(2-methylpyridin-4-yl)-1H-pyrazolo[3,4-c]pyridin-5-yl]urea], 0.0116 µM. For `Cc1cc(-n2ncc3cc(NC(=O)NC4COc5ccccc54)ncc32)ccn1` (centres unmarked) [Example 177, 1-(2,3-dihydro-1-benzofuran-3-yl)-3-[1-(2-methylpyridin-4-yl)-1H-pyrazolo[3,4-c]pyridin-5-yl]urea], the IC50 was determined as 0.215 µM.

As for `Cc1cc(-n2ncc3cc(NC(=O)NC4CCC(c5ccccc5)C4)ncc32)ccn1` (centres unmarked) [Example 178, 1-[1-(2-methylpyridin-4-yl)-1H-pyrazolo[3,4-c]pyridin-5-yl]-3-(3-phenylcyclopentyl)urea], the IC50 was found to be 0.0371 µM. `Cc1cc(-n2ncc3cc(NC(=O)N[C@H]4CCC[C@@H]4Oc4cccnc4)ncc32)ccn1` [Example 179, 1-[1-(2-methylpyridin-4-yl)-1H-pyrazolo[3,4-c]pyridin-5-yl]-3-[(1S,2S)-2-(pyridin-3-yloxy)cyclopentyl]urea]: the IC50 turned out to be 0.511 µM. As for `Cc1cc(-n2ncc3cc(NC(=O)N[C@H]4CN(C)C[C@@H]4c4ccccc4C)ncc32)ccn1` [Example 180, 1-[(3R,4S)-1-methyl-4-(2-methylphenyl)pyrrolidin-3-yl]-3-[1-(2-methylpyridin-4-yl)-1H-pyrazolo[3,4-c]pyridin-5-yl]urea], the IC50 is 0.00028 µM.

`Cc1cc(-n2ncc3cc(NC(=O)N[C@@H]4CN(C)C[C@H]4c4ccccc4)ncc32)ccn1` [Example 181, 1-((3S,4R)1-methyl-4-phenyl-pyrrolidin-3-yl)-3-[1-(2-methyl-pyridin-4-yl)-1H-pyrazolo[3,4-c]pyridin-5-yl]urea]: the IC50 was 0.000983 µM.

Take `Cc1cc(-n2ncc3cc(NC(=O)N[C@H]4CN(C)C[C@@H]4c4ccccc4)ncc32)ccn1` [Example 182, 1-((3R,4S)1-methyl-4-phenyl-pyrrolidin-3-yl)-3-[1-(2-methyl-pyridin-4-yl)-1H-pyrazolo[3,4-c]pyridin-5-yl]urea]: the 50% inhibitory concentration (IC50) was 0.0597 µM. Under `Cc1cc(-n2ncc3cc(NC(=O)N[C@H]4[C@H](c5ccccc5)CN(C)C45COC5)ncc32)ccn1` [Example 183, 1-[(7R,8S)-5-methyl-7-phenyl-2-oxa-5-azaspiro[3.4]oct-8-yl]-3-[1-(2-methylpyridin-4-yl)-1H-pyrazolo[3,4-c]pyridin-5-yl]urea] stands 0.0122 µM; under `Cc1cc(-n2ncc3cc(NC(=O)N[C@@H]4[C@@H](c5ccccc5)CN(C)C45COC5)ncc32)ccn1` [Example 184, 1-[(7S,8R)-5-methyl-7-phenyl-2-oxa-5-azaspiro[3.4]oct-8-yl]-3-[1-(2-methylpyridin-4-yl)-1H-pyrazolo[3,4-c]pyridin-5-yl]urea], 0.873 µM. Under `Cc1cc(-n2ncc3cc(NC(=O)N[C@H]4CN(C)C[C@@H]4CCc4ccccc4)ncc32)ccn1` [Example 185, 1-[(3R,4S)-1-methyl-4-(2-phenylethyl)pyrrolidin-3-yl]-3-[1-(2-methylpyridin-4-yl)-1H-pyrazolo[3,4-c]pyridin-5-yl]urea] stands 0.000182 µM. Consider `Cc1cc(-n2ncc3cc(NC(=O)N[C@@H](CN)c4ccccc4)ncc32)ccn1` [Example 186, 1-[(1R)-2-amino-1-phenylethyl]-3-[1-(2-methylpyridin-4-yl)-1H-pyrazolo[3,4-c]pyridin-5-yl]urea], for which the concentration for half-maximal inhibition (IC50) turned out to be 0.0425 µM. Consider `Cc1cc(-n2ncc3cc(NC(=O)N[C@H](CN)c4ccccc4)ncc32)ccn1` [Example 187, 1-[(1S)-2-amino-1-phenylethyl]-3-[1-(2-methylpyridin-4-yl)-1H-pyrazolo[3,4-c]pyridin-5-yl]urea], for which the IC50 was determined as 0.000685 µM.

Consider `Cc1cc(-n2ncc3cc(NC(=O)N[C@@H]4CN(C)C[C@H]4c4ccc(C)s4)ncc32)ccn1` [Example 188, 1-[(3S,4R)-1-methyl-4-(5-methylthiophen-2-yl)pyrrolidin-3-yl]-3-[1-(2-methylpyridin-4-yl)-1H-pyrazolo[3,4-c]pyridin-5-yl]urea], for which the half-inhibitory concentration (IC50) worked out at 0.0701 µM. Under `Cc1cc(-n2ncc3cc(NC(=O)N[C@H]4CN(C)C[C@@H]4c4ccc(C)s4)ncc32)ccn1` [Example 189, 1-[(3R,4S)-1-methyl-4-(5-methylthiophen-2-yl)pyrrolidin-3-yl]-3-[1-(2-methylpyridin-4-yl)-1H-pyrazolo[3,4-c]pyridin-5-yl]urea] stands 0.000254 µM. For the molecule `Cc1cc(-n2ncc3cc(NC(=O)N[C@@H]4CN(C)C[C@H]4c4ccccc4C)ncc32)ccn1` [Example 190, 1-[(3S,4R)-1-methyl-4-(2-methylphenyl)pyrrolidin-3-yl]-3-[1-(2-methylpyridin-4-yl)-1H-pyrazolo[3,4-c]pyridin-5-yl]urea], the half-maximal inhibitory concentration (IC50) turned out to be 0.0117 µM. Consider `Cc1cc(-n2ncc3cc(NC(=O)N[C@H]4CN(C)C[C@@H]4c4ccccc4C(F)(F)F)ncc32)ccn1` [Example 191, 1-[1-(2-methylpyridin-4-yl)-1H-pyrazolo[3,4-c]pyridin-5-yl]-3-{(3R,4S)-1-methyl-4-[2-(trifluoromethyl)-phenyl]pyrrolidin-3-yl}urea], for which the concentration for half-maximal inhibition (IC50) amounted to 0.000509 µM. As for `Cc1cc(-n2ncc3cc(NC(=O)N[C@@H]4CN(C)C[C@H]4c4ccccc4C(F)(F)F)ncc32)ccn1` [Example 192, 1-[1-(2-methylpyridin-4-yl)-1H-pyrazolo[3,4-c]pyridin-5-yl]-3-{(3S,4R)-1-methyl-4-[2-(trifluoromethyl)-phenyl]pyrrolidin-3-yl}urea], the IC50 worked out at 0.235 µM. For `CO[C@H]1CN(C)C[C@@H]1NC(=O)Nc1cc2cnn(-c3ccnc(C)c3)c2cn1` [Example 193, 1-[(3S,4S)-4-methoxy-1-methylpyrrolidin-3-yl]-3-[1-(2-methylpyridin-4-yl)-1H-pyrazolo[3,4-c]pyridin-5-yl]urea], the IC50 turned out to be 2.53 µM. Turning to `CO[C@@H]1CN(C)C[C@H]1NC(=O)Nc1cc2cnn(-c3ccnc(C)c3)c2cn1` [Example 194, 1-[(3R,4R)-4-methoxy-1-methylpyrrolidin-3-yl]-3-[1-(2-methylpyridin-4-yl)-1H-pyrazolo[3,4-c]pyridin-5-yl]urea], the IC50 was 0.0477 µM.

With `Cc1cc(-n2ncc3cc(NC(=O)N[C@H]4CN(C5CCC5)C[C@@H]4c4ccccc4)ncc32)ccn1` [Example 195, 1-[(3R,4S)-1-cyclobutyl-4-phenylpyrrolidin-3-yl]-3-[1-(2-methylpyridin-4-yl)-1H-pyrazolo[3,4-c]pyridin-5-yl]urea], the IC50 worked out at 0.0036 µM.
